Assay results as given in ChEMBL document CHEMBL4020789, “Development of 5-hydroxypyrazole derivatives as reversible inhibitors of lysine specific demethylase 1” (Bioorg Med Chem Lett, 2017).

What was measured:
[1] = Half life in human microsomes; type: ADME, Microsome
[2] = Apparent permeability of the compound across apical side to basolateral side in human Caco2 cells; type: ADME, cell-based; settings: Caco-2
[3] = Intrinsic clearance in human microsomes assessed […]; type: ADME, Microsome
[4] = Half life in mouse hepatocytes; type: ADME, cell-based, Hepatocyte
[5] = target: Voltage-gated inwardly rectifying potassium channel KCNH2 (Homo sapiens, UniProt Q12809); assay: Inhibition of human ERG by patch clamp assay
[6] = Oral bioavailability in mouse; type: ADME, organism-based; settings: in vivo
[7] = Fraction unbound in mouse; type: ADME, organism-based; settings: in vivo
Mus musculus = assay: AUC in iv dosed mouse; type: ADME, organism-based; settings: in vivo
[8] = Half life in po dosed mouse; type: ADME, organism-based; settings: in vivo
[9] = Half life in iv dosed mouse; type: ADME, organism-based; settings: in vivo
[10] = Clearance in mouse; type: ADME, organism-based; settings: in vivo
[11] = Volume of distribution in mouse; type: ADME, organism-based; settings: in vivo

Chain of Voltage-gated inwardly rectifying potassium channel KCNH2 (Q12809 whole entry): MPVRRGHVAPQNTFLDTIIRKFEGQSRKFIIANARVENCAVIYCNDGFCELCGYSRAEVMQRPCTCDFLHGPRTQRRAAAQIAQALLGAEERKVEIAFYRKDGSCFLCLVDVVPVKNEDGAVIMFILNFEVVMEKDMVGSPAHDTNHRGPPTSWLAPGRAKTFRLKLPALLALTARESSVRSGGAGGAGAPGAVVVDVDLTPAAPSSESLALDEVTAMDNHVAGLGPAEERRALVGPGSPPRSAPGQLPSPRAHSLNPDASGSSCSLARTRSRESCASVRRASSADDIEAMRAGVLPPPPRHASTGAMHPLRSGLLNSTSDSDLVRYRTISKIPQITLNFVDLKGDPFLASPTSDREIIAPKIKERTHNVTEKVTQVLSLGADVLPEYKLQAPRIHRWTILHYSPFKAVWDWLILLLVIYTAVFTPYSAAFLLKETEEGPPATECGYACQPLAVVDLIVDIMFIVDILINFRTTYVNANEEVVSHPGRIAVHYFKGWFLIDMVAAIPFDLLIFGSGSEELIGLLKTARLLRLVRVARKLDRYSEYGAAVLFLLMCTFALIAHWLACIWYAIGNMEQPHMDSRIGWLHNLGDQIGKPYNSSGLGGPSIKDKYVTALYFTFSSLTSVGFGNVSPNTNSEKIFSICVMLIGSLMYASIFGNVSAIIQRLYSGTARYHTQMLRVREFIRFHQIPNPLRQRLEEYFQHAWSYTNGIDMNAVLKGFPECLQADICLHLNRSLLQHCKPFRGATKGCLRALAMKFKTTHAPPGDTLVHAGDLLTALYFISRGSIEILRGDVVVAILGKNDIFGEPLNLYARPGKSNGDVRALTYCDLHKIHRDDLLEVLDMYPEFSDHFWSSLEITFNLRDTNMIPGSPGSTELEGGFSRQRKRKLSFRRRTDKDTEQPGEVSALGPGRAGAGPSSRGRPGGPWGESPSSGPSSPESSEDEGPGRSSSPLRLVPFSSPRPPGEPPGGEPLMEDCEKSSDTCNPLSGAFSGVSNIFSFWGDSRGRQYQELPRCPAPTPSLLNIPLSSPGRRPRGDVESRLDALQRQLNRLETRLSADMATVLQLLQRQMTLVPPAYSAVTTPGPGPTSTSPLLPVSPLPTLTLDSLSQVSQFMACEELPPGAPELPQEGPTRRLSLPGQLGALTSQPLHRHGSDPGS

| Structure (SMILES) | half-life [1] [h] | Papp A→B [2] [×10⁻⁶ cm/s] | CL [3] [µL/min] | half-life [4] [h] | IC50 [5] [µM] | bioavailability [6] [%] | fraction unbound [7] | AUC (Mus musculus) [µg/h/mL] | half-life [8] [h] | half-life [9] [h] | clearance [10] [mL/min/kg] | Vd [11] [L/kg] |
| --- | --- | --- | --- | --- | --- | --- | --- | --- | --- | --- | --- | --- |
| N#Cc1ccc(-n2nc(C(=O)N3CCC[C@@H](N)C3)cc2OCC(O)C(F)(F)F)cc1 (some centres undefined) | 4.17 | < 0.1 | 5.6 |  |  |  |  |  |  |  |  |  |
| Cc1cc(COc2cc(C(=O)N3CCC[C@@H](N)C3)nn2-c2ccc(C#N)cc2)on1 | 3.35 | 0.73 | 6.91 | 1.13 |  |  |  |  |  |  |  |  |
| Cc1ccc(-c2ncc(OC[C@H]3CCNC3)cc2-c2ccc(C#N)cc2)cc1 |  |  |  |  | 3 |  |  |  |  |  |  |  |
| CCc1cc(COc2cc(C(=O)N3CCC[C@@H](N)C3)nn2-c2ccc(C#N)cc2)on1 | 4.17 | 0.415 | 5.6 | 2.02 |  | 38 | 0.19 | 0.405 | 1.3 | 0.9 | 45.7 | 3.1 |
